Our source for the DC50 and Dmax values is patent US20260184710A1, “CASITAS B-LINEAGE LYMPHOMA PROTOONCOGENE B (CBL-B) DEGRADING COMPOUNDS AND ASSOCIATED METHODS OF USE” (Arvinas Operations, Inc., priority 2022, published 2026).

The experiment deals with T1, Cbl-b (Homo sapiens, UniProt Q13191).
T1 construct: Cbl-b-HiBit KI Jurkat Cells were purchased from Promega; host or cells: Cbl-b-HiBiT knock-in Jurkat cells
In words: Cbl-b Degradation Method B (Nano-Glo HiBiT lytic detection). Type of experiment: cell-based. As to conditions: Cbl-b-HiBit KI Jurkat Cells, incubated at least 6-24 hours; for DC50: half maximal degradation, read-out: Cbl-b Degredation Method B IC50; for Dmax: maximum degradation observed, read-out: Cbl-b Degredation Method B Dmax (%). In outline: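 An 11-point, 3-fold compound dilution was applied for 6-24 hours to Jurkat cells carrying HiBiT-tagged endogenous Cbl-b. Lytic HiBiT luminescence quantified residual protein. Outputs are DC50 and Dmax relative to DMSO control.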

T1 sequence (Q13191 whole entry): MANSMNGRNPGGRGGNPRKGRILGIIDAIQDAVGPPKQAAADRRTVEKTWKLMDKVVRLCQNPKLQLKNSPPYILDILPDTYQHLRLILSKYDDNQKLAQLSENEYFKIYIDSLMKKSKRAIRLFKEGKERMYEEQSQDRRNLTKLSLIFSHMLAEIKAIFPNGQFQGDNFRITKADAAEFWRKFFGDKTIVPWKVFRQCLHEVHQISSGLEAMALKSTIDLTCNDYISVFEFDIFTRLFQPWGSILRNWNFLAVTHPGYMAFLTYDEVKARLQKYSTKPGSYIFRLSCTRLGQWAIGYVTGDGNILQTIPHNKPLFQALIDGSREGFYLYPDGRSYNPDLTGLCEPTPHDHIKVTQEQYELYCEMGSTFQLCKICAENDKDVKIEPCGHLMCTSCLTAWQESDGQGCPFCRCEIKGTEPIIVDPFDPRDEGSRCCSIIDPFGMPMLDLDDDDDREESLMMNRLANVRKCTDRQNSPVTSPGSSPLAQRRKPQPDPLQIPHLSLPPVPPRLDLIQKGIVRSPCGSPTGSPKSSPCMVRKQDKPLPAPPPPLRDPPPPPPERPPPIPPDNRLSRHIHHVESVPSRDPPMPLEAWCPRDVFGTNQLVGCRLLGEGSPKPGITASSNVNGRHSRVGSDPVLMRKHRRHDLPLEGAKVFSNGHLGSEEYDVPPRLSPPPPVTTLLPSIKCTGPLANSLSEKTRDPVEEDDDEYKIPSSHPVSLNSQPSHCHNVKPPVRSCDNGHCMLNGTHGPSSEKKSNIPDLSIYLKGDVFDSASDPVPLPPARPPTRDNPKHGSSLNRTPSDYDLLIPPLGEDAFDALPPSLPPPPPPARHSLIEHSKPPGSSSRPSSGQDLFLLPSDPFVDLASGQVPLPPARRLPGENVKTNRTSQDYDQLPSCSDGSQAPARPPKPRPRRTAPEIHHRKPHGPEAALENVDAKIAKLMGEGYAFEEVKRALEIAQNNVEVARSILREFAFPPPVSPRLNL

With `Cn1cnnc1CC1(c2cccc(N3Cc4c(cc(CN5CC6(C5)CN(CC5CCN(c7ccc8c(c7)C(=O)N(C7CCC(=O)NC7=O)C8=O)CC5)C6)cc4C(F)(F)F)C3=O)c2)COC1` (centres unmarked) [Example 68, 2-(2,6-dioxopiperidin-3-yl)-5-{4-[(6-{[2-(3-{3-[(4-methyl-4H-1,2,4-triazol-3-yl)methyl]oxetan-3-yl}phenyl)-3-oxo-7-(trifluoromethyl)-2,3-dihydro-1H-isoindol-5-yl]methyl}-2,6-diazaspiro[3.3]heptan-2-yl)methyl]piperidin-1-yl}-2,3-dihydro-1H-isoindole-1,3-dione], the DC50 is over 500 nM.

For the compound `Cn1cnnc1CC1(c2cccc(N3Cc4c(cc(CN5CC6(C5)CN(CC5CCN(c7cccc8c7C(=O)N(C7CCC(=O)NC7=O)C8=O)CC5)C6)cc4C(F)(F)F)C3=O)c2)COC1` (centres unmarked) [Example 69, 2-(2,6-dioxopiperidin-3-yl)-4-{4-[(6-{[2-(3-{3-[(4-methyl-4H-1,2,4-triazol-3-yl)methyl]oxetan-3-yl}phenyl)-3-oxo-7-(trifluoromethyl)-2,3-dihydro-1H-isoindol-5-yl]methyl}-2,6-diazaspiro[3.3]heptan-2-yl)methyl]piperidin-1-yl}-2,3-dihydro-1H-isoindole-1,3-dione], the DC50 was over 500 nM.

Regarding `Cn1cnnc1CC1(c2cccc(N3Cc4c(cc(CN5CCC5CC5CCN(c6ccc7c(c6)C(=O)N(C6CCC(=O)NC6=O)C7=O)CC5)cc4C(F)(F)F)C3=O)c2)COC1` (centres unmarked) [Example 70, 2-(2,6-dioxopiperidin-3-yl)-5-{4-[(1-{[2-(3-{3-[(4-methyl-4H-1,2,4-triazol-3-yl)methyl]oxetan-3-yl}phenyl)-3-oxo-7-(trifluoromethyl)-2,3-dihydro-1H-isoindol-5-yl]methyl}azetidin-2-yl)methyl]piperidin-1-yl}-2,3-dihydro-1H-isoindole-1,3-dione], the DC50 was over 500 nM.

Turning to `Cn1cnnc1CC1(c2cccc(N3Cc4c(cc(CN5CCC(CCC6CCN(c7ccc8c(c7)C(=O)N(C7CCC(=O)NC7=O)C8=O)CC6)CC5)cc4C(F)(F)F)C3=O)c2)COC1` (centres unmarked) [Example 71, 2-(2,6-dioxopiperidin-3-yl)-5-{4-[2-(1-{[2-(3-{3-[(4-methyl-4H-1,2,4-triazol-3-yl)methyl]oxetan-3-yl}phenyl)-3-oxo-7-(trifluoromethyl)-2,3-dihydro-1H-isoindol-5-yl]methyl}piperidin-4-yl)ethyl]piperidin-1-yl}-2,3-dihydro-1H-isoindole-1,3-dione], the DC50 is over 500 nM.

As to `C[C@@H]1C[C@H](CN2CCC(CN3CCC(CN4CCN(c5ccc6c(c5)C(=O)N(C5CCC(=O)NC5=O)C6=O)CC4)CC3)CC2)CN(Cc2cc3c(c(C(F)(F)F)c2)CN(c2cccc(C4(Cc5nncn5C)COC4)c2)C3=O)C1` (stereo partly drawn) [Example 72, 2-(2,6-dioxopiperidin-3-yl)-5-[4-({1-[(1-{[(3R,5R)-5-methyl-1-{[2-(3-{3-[(4-methyl-4H-1,2,4-triazol-3-yl)methyl]oxetan-3-yl}phenyl)-3-oxo-7-(trifluoromethyl)-2,3-dihydro-1H-isoindol-5-yl]methyl}piperidin-3-yl]methyl}piperidin-4-yl)methyl]piperidin-4-yl}methyl)piperazin-1-yl]-2,3-dihydro-1H-isoindole-1,3-dione], the DC50 was under 5 nM and the Dmax was 35 to 70%.

Consider `C[C@@H]1C[C@H](CN2CCC(CN3CCC(CN4CCN(c5ccc6c(c5)C(=O)N(C5CCC(=O)NC5=O)C6=O)CC4)CC3)CC2)CN(c2cc3c(c(C(F)(F)F)c2)CN(c2cccc(C4(Cc5nncn5C)COC4)c2)C3=O)C1` (stereo partly drawn) [Example 73, 2-(2,6-dioxopiperidin-3-yl)-5-[4-({1-[(1-{[(3R,5R)-5-methyl-1-[2-(3-{3-[(4-methyl-4H-1,2,4-triazol-3-yl)methyl]oxetan-3-yl}phenyl)-3-oxo-7-(trifluoromethyl)-2,3-dihydro-1H-isoindol-5-yl]piperidin-3-yl]methyl}piperidin-4-yl)methyl]piperidin-4-yl}methyl)piperazin-1-yl]-2,3-dihydro-1H-isoindole-1,3-dione], for which the DC50 fell in the range of 5 to 50 nM and the Dmax fell in the range of 35 to 70%.

For the compound `Cn1cnnc1CC1(c2cccc(N3Cc4c(cc(CN5CCC(CC6CCN(c7ccc8c(c7)C(=O)N(C7CCC(=O)NC7=O)C8=O)CC6)CC5)cc4C(F)(F)F)C3=O)c2)COC1` (centres unmarked) [Example 78, 2-(2,6-dioxopiperidin-3-yl)-5-{4-[(1-{[2-(3-{3-[(4-methyl-4H-1,2,4-triazol-3-yl)methyl]oxetan-3-yl}phenyl)-3-oxo-7-(trifluoromethyl)-2,3-dihydro-1H-isoindol-5-yl]methyl}piperidin-4-yl)methyl]piperidin-1-yl}-2,3-dihydro-1H-isoindole-1,3-dione], the DC50 was over 500 nM.

Consider `Cn1cnnc1CC1(c2cccc(N3Cc4c(cc(CN5CCC(CN6CCN(c7ccc8c(c7)C(=O)N(C7CCC(=O)NC7=O)C8=O)CC6)C5)cc4C(F)(F)F)C3=O)c2)COC1` (centres unmarked) [Example 80, 2-(2,6-dioxopiperidin-3-yl)-5-{4-[(1-{[2-(3-{3-[(4-methyl-4H-1,2,4-triazol-3-yl)methyl]oxetan-3-yl}phenyl)-3-oxo-7-(trifluoromethyl)-2,3-dihydro-1H-isoindol-5-yl]methyl}pyrrolidin-3-yl)methyl]piperazin-1-yl}-2,3-dihydro-1H-isoindole-1,3-dione], for which the DC50 was over 500 nM.

Regarding `Cn1cnnc1CC1(c2cccc(N3Cc4c(cc(CN5CCC[C@H](CN6CCN(C(=O)[C@H]7CC[C@@H](OC8CCN(c9ccc%10c(c9F)CN(C9CCC(=O)NC9=O)C%10=O)CC8)CC7)CC6)C5)cc4C(F)(F)F)C3=O)c2)COC1` (stereo partly drawn) [Example 113, 3-[4-fluoro-1-oxo-5-(4-{[(1r,4r)-4-(4-{[(3S)-1-{[2-(3-{3-[(4-methyl-4H-1,2,4-triazol-3-yl)methyl]oxetan-3-yl}phenyl)-3-oxo-7-(trifluoromethyl)-2,3-dihydro-1H-isoindol-5-yl]methyl}piperidin-3-yl]methyl}piperazine-1-carbonyl)cyclohexyl]oxy}piperidin-1-yl)-2,3-dihydro-1H-isoindol-2-yl]piperidine-2,6-dione], the DC50 was under 5 nM and the greatest degradation seen (Dmax) is 35 to 70%.

Consider `Cn1cnnc1C[C@]1(c2cccc(N3Cc4c(cc(N5CC6(CCN(C(=O)C7CCN(c8ccc9c(c8)C(=O)N(C8CCC(=O)NC8=O)C9=O)CC7)CC6)C5)cc4C(F)(F)F)C3=O)c2)C[C@H](C#N)C1` (some centres unmarked) [Example 146, 3-[3-[6-[7-[1-[2-(2,6-dioxo-3-piperidyl)-1,3-dioxo-isoindolin-5-yl]piperidine-4-carbonyl]-2,7-diazaspiro[3.5]nonan-2-yl]-1-oxo-4-(trifluoromethyl)isoindolin-2-yl]phenyl]-3-[(4-methyl-1,2,4-triazol-3-yl)methyl]cyclobutanecarbonitrile], for which the DC50 lay within 5 to 50 nM and the Dmax is under 35%.

Consider `Cn1cnnc1CC1(c2cccc(-n3cc4ccc(CN5CCC[C@H](CN6CCN(C[C@H]7CC[C@H](OC8CCN(c9ccc%10c(c9F)CN(C9CCC(=O)NC9=O)C%10=O)CC8)CC7)CC6)C5)cc4n3)c2)COC1` (stereo partly drawn) [Example 147, 3-[4-fluoro-5-[4-[4-[[4-[[(3S)-1-[[2-[3-[3-[(4-methyl-1,2,4-triazol-3-yl)methyl]oxetan-3-yl]phenyl]indazol-6-yl]methyl]-3-piperidyl]methyl]piperazin-1-yl]methyl]cyclohexoxy]-1-piperidyl]-1-oxo-isoindolin-2-yl]piperidine-2,6-dione], for which the DC50 is over 500 nM.

As to `COc1c(N2CCC(OC3CCC4(CC3)CN(c3cc5c(c(C(F)(F)F)c3)CN(c3cccc(C6(Cc7nncn7C)COC6)c3)C5=O)C4)CC2)ccc2c1CN(C1CCC(=O)NC1=O)C2=O` (centres unmarked) [Example 149, 3-[4-methoxy-5-[4-[[2-[2-[3-[3-[(4-methyl-1,2,4-triazol-3-yl)methyl]oxetan-3-yl]phenyl]-3-oxo-7-(trifluoromethyl)isoindolin-5-yl]-2-azaspiro[3.5]nonan-7-yl]oxy]-1-piperidyl]-1-oxo-isoindolin-2-yl]piperidine-2,6-dione], the DC50 lay in the range of 5 to 50 nM and the maximal degradation (Dmax) is 35 to 70%.

Regarding `Cc1cc(N2C[C@H]3C[C@@H]2CN3CC2CCC3(CC2)CN(c2cc4c(c(C(F)(F)F)c2)CN(c2cccc([C@]5(Cc6nncn6C)C[C@@H](C#N)C5)c2)C4=O)C3)c(F)c2c1C(=O)N(C1CCC(=O)NC1=O)C2` (stereo partly drawn) [Example 150, 3-[3-[6-[7-[[(1R,4R)-5-[2-(2,6-dioxo-3-piperidyl)-4-fluoro-7-methyl-1-oxo-isoindolin-5-yl]-2,5-diazabicyclo [2.2.1]heptan-2-yl]methyl]-2-azaspiro [3.5]nonan-2-yl]-1-oxo-4-(trifluoromethyl)isoindolin-2-yl]phenyl]-3-[(4-methyl-1,2,4-triazol-3-yl)methyl]cyclobutanecarbonitrile], the DC50 is over 500 nM.

As to `CC1c2nc(N3CCC(O[C@H]4CC[C@H](CN5CCN(Cc6ccc7c(n6)C(=O)N(c6cccc(C8(Cc9nncn9C)COC8)c6)C7)CC5)CC4)CC3)ccc2C(=O)N1C1CCC(=O)NC1=O` (some centres unmarked) [Example 151, 3-[7-methyl-2-[4-[4-[[4-[[6-[3-[3-[(4-methyl-1,2,4-triazol-3-yl)methyl]oxetan-3-yl]phenyl]-7-oxo-5H-pyrrolo [3,4-b]pyridin-2-yl]methyl]piperazin-1-yl]methyl]cyclohexoxy]-1-piperidyl]-5-oxo-7H-pyrrolo [3,4-b]pyridin-6-yl]piperidine-2,6-dione], the DC50 was 5 to 50 nM and the Dmax lay in the range of 35 to 70%.
